Experimental data: patent publication US10202420B2, “Methods and compositions for treatment of cartilage and disc tissue pathologies” (THE ROYAL INSTITUTION FOR ADVANCEMENT OF LEARNING/MCGILL …, priority 2013, dated 2019)
Where no end group is shown, it is not given here.

Legend:
[1] = LIVE/DEAD cell viability in alginate beads; type: cell-based; details: bovine, bovine intervertebral disc NP and AF cells in alginate beads, 1 μg/ml, 18 days, alginate scaffolds, read-out: cellular viability
Method: Coccygeal IVDs from healthy 20-24 month old steers were obtained from a local abattoir at 2-3 hours after slaughter. The IVDs were separated from their adjacent vertebral bodies, and the cells were isolated from the NP and AF regions by sequential digestion with 0.2% Pronase followed by 0.125% Collagenase digestion as previously described. After isolation, the NP and AF cells were either immediately embedded in alginate beads or were plated in 6 well plates for protein extraction.
After isolation the NP and AF cells were resuspended in 1.2% alginate (dissolved in 0.15 M NaCl) at a concentration of 2 million cells per ml. Alginate was chosen to assess the effect on matrix production in the absence of extensive cell proliferation. Droplets of cell suspension were released through an 18-gauge needle into 102 mM calcium chloride solution and were let to polymerize for 10 minutes. Alginate beads were subsequently stabilized for 7 days in culture media (Dulbecco's Modified Eagle Medium high glucose supplemented with 10% fetal bovine serum and antibiotics). […]
Cell viability was assessed at day 18 on the alginate beads using a live/dead fluorescence assay (Live/Dead®, Invitrogen) and visualized by fluorescent microscopy.

[2] = test system: human nucleus pulposus (NP) cells; assay: Proteoglycan synthesis by 35SO4 incorporation, cells in alginate beads; type: cell-based; details: 48 h
Method: (§1) Human thoracolumbar spines were retrieved through the Transplant Quebec organ donation program. Discs were obtained from 7 donors, 1 male and 6 female, with a mean age of 29.6 years and an age range of 16 to 47 years (Table 1). Donors having had recent chemotherapy, radiation therapies to the spine, or significant long-standing paralysis were excluded from the study. Spine retrieval was performed within 8 h of death. Discs with calcification and loss of disc height were not included in the study. All procedures were approved by the institutional review board of the Montreal General Hospital.
(§2) Human and bovine IVDs were separated from the adjoining vertebral body and divided into NP and AF for bovine IVDs and NP and inner annulus fibrosus (iAF) for human IVDs. Tissue from the human outer annulus fibrosus (oAF) was not used for cell isolation in this study. Cells were enzymatically isolated from each region as previously described (63). Briefly, NP and AF tissues were dissected into approximately 2-mm thick pieces, washed twice in PBS containing 50 μg/mL gentamicin, […] and 0.25 μg/mL fungizone, then digested with 0.2% pronase for 1 h, followed by collagenase type IA at 0.01% for NP and 0.04% for AF tissue for 4 h in serum free DMEM.
(§3) To compare the metabolic response to the various Link N peptides, freshly isolated human and bovine cells from NP and AF regions were embedded in 1.2% alginate beads, as previously described (65). Cells in alginate beads were cultured at 37° C., 5% CO2 in DMEM, containing 4.5 g/L glucose and supplemented with 10% FCS, 25 mmol/L HEPES, 50 μg/mL gentamicin sulphate, 0.25 μg/mL fungizone, 50 μg/mL L-ascorbate, and 2 mmol/L GlutaMAX. The beads were stabilized for 7 days and cell viability was assessed by Live/Dead® assay prior to further treatment. 5 beads per well were then cultured in 48 well plates in the presence of equimolar concentrations of either Link N (1 μg/mL), R-Link N (1 μg/mL), S-Link N (1 μg/mL), Link N 1-8 (0.5 μg/mL) or Link N 9-16 (0.5 μg/mL) in 0.5 mL DMEM. 25 μCi/mL ^35SO4 was added to the medium to allow assessment of proteoglycan synthesis (66). In addition, beads were exposed for 48 h to IL-1β (10 ng/mL) alone, or to a combination of peptides and IL-1β (51). At the end of the culture period, medium was collected and dialyzed exhaustively against miliQ water at […] (Spectra/Por® 3), followed by cold chase with 1M MgSO4 for 2 h to remove any remaining unincorporated ^35SO4. The ^35SO4 incorporation was measured using a beta scintillation counter (Beckman Coulter LS6500, Beckman Coulter, Mississauga, Canada).

[3] = test system: human inner annulus fibrosus (iAF) cells; assay: as above; type: cell-based; details: human AF (iAF) cells, 48 h
Method: as §1, §2, §3

[4] = test system: bovine annulus fibrosus (AF) cells; assay: as above; type: cell-based; details: 48 h, 16-mer peptides 1 μg/mL, 8-mer peptides 0.5 μg/mL, vs medium alone
Method: as §2, §3

[5] = test system: bovine nucleus pulposus (NP) cells; assay: as above; type: cell-based; details: 48 h, 16-mer peptides 1 μg/mL, 8-mer peptides 0.5 μg/mL, vs medium alone
Method: as §2, §3

[6] = test system: cells from degenerated disc tissue; details: Wang et al.; 100 ng/mL; monolayer-expanded cells in 3D culture; cited from earlier work
[7] = 16-mer peptides 1 μg/mL, 8-mer peptides 0.5 μg/mL, vs medium alone
[8] = IL-1β 10 ng/mL, vs IL-1-containing medium

DHHSDNYTVDHDRVIH [BLN, DHHSDNYTVDHDRVIH]
viability at 432 h, 1 µg/mL [1]: > 98%

LDHDRAIH [Link N 9-16, second 8 peptide residues of Link N]
proteoglycan synthesis (35SO4 incorporation) [2, 7]: no response
proteoglycan synthesis (35SO4 incorporation) in the presence of IL-1β [2, 8]: no response
proteoglycan synthesis (35SO4 incorporation) [3, 7]: no response
proteoglycan synthesis (35SO4 incorporation) in the presence of IL-1β [3, 8]: no response
proteoglycan synthesis (35SO4 incorporation) [4]: no effect was seen
proteoglycan synthesis (35SO4 incorporation) [5]: no effect was seen

residue 1-12 peptide: Link N-derived peptide spanning amino acid residues 1-12, tested by Wang et al. (DHLSDNYTLDHD; UniProt P10915 16-27, looked up, fragment)
stimulatory effect (cell-associated sulphated GAG) [6]: inactive
